Data published in US9585386B2, “Microbicidal composition” (Dow Global Technologies LLC, priority 2013, dated 2017).
Values joined by “and” are separate entries in the source; they are usually repeats but may differ in a detail not shown here. Equal values may be shown once. Read-outs that look alike come from different tables or passages of the source.

Columns and labels:
Type in all cases: cell-based
any organism tested = assay: Synergy of other biocides paired with surfactants; settings: for ratio of surfactant to biocide where synergy was observed: not commercially relevant (less biocide relative to surfactant)
Method: (§1) Surfactants and biocides were evaluated for synergy by determining the synergy index (S.I.) of the combination. Synergy index was calculated based on minimum inhibitory concentrations (MIC) of two antimicrobial compounds (A and B) alone and in combinations. The tests organisms were Gram negative bacteria (Pseudomonas aeruginosa ATCC #15442), Gram positive bacteria (Staphylococcus aureus ATCC #6538), yeast (Candida albicans ATCC #10203) and mold (Aspergillus niger ATCC#16404). Contact time for the bacteria was 24 and 48 hours, yeast was 48 and 72 hrs, and 3 and 7 days for mold. The test was carried out in 96 well microtiter plates. • Surf. A R^1O(CH2CH(CH3)O)5(CH2CH2O)9H, where R^1 is 2-ethylhexyl • Surf. D R^2O(CH2CH(CH3)O)3(CH2CH2O)5H • Surf. E R^2O(CH2CH(CH3)O)3(CH2CH2O)7H In Surf. D and Surf. E, R^2 is a mixture of C8-C14 linear alkyl groups (70% C8-C10 linear alkyl and 30% C12-C14 linear alkyl) Inoculums Used
(§2) SI is calculated as follows: Ca/CA+Cb/CB=Synergy Index (“SI”)
(§3) Wherein: • CA=concentration of compound A in ppm, acting alone, which produced an end point (MIC of Compound A). • Ca=concentration of compound A in ppm, in the mixture, which produced an end point. • CB=concentration of compound B in ppm, acting alone, which produced an end point (MIC of Compound B). • Cb=concentration of compound B in ppm, in the mixture, which produced an end point. When the sum of Ca/CA and Cb/CB is greater than one, antagonism is indicated.
A • Sodium Benzoate, TRIS NITRO Surf. E • DMDMH Surf. […] At these ratios, the biocide levels in a formulated product would be too low to be practical: Surf. A • DIDAC, IPBC Surf. E • CMIT/MIT, IPBC, OIT, TTPC, WSCP Surf.

[1] = tested on: Staphylococcus aureus ATCC #6538; assay: MIC / synergy index test in 96 well microtiter plates, Gram positive bacteria
Method: as §1
(§4) The pH of the Triptic soy broth was 7.3 and the Potato dextrose broth was 5.1.
as §2, §3

[2] = tested on: Pseudomonas aeruginosa ATCC #15442; assay: MIC / synergy index test in 96 well microtiter plates, Gram negative bacteria; settings: for Cb (concentration of compound B in the mixture which produced an end point): 1/10 TSB, 24 hrs; for MIC: Pseudomonas aeruginosa, ATCC15442, 24 h
Method: as §1, §4, §2, §3

[3] = tested on: Candida albicans ATCC #10203; assay: MIC / synergy index test in 96 well microtiter plates, yeast; settings: for CB (MIC of compound B alone): MIT alone; for CB (MIC of compound B alone) / Cb (concentration of compound B in the mixture which produced an end point): PDB, 48 hrs
Method: as §1, §4, §2, §3

[4] = tested on: Aspergillus niger ATCC#16404; assay: MIC / synergy index test in 96 well microtiter plates, mold; settings: PDB, 3rd day; for MIC: Aspergillus niger, ATCC16404, read-out: CB (MIC of compound B alone), MIT alone, inoculum 1.156E+06 CFU/ml; for Cb (concentration of compound B in the mixture which produced an end point): 1.156E+06 CFU/ml
Method: as §1, §4, §2, §3

CC1(C)C(=O)N(CO)C(=O)N1CO [DMDMH]
Synergy against any organism tested (any organism tested; biocide paired with Surf. D): no synergy | Synergy against any organism tested (any organism tested; biocide paired with Surf. E): no synergy

CCCCCCCCCCCCCC[P+](CCCC)(CCCC)CCCC.[Cl-] [TTPC]
ratio of surfactant to biocide where synergy was observed (any organism tested; biocide paired with Surf. E): 1:0.2 or greater

CCCCCCCCn1sccc1=O [OIT]
ratio of surfactant to biocide where synergy was observed (any organism tested; biocide paired with Surf. D): 1:0.2 or greater | ratio of surfactant to biocide where synergy was observed (any organism tested; biocide paired with Surf. E): 1:0.2 or greater

CCCCCCCCCC[N+](C)(C)CCCCCCCCCC.[Cl-] [DIDAC]
ratio of surfactant to biocide where synergy was observed (any organism tested; biocide paired with Surf. A): 1:0.2 or greater | ratio of surfactant to biocide where synergy was observed (any organism tested; biocide paired with Surf. D): 1:0.2 or greater

CCCCNC(=O)OCC#CI [IPBC]
ratio of surfactant to biocide where synergy was observed (any organism tested; biocide paired with Surf. A): 1:0.2 or greater | ratio of surfactant to biocide where synergy was observed (any organism tested; biocide paired with Surf. D): synergistic only at 1:0.05 or worse | ratio of surfactant to biocide where synergy was observed (any organism tested; biocide paired with Surf. E): 1:0.2 or greater

Cn1sccc1=O [MIT, 2-methyl-4-isothiazolin-3-one]
CB (MIC of compound B alone) ([1]; MIT alone, Surf. E series, 1/10 TSB, inoculum 1.808E+06 CFU/ml, 24 hrs): 60 ppm | Cb (concentration of compound B in the mixture which produced an end point) ([1]; MIT in mixture with Surf. E, 1/10 TSB, 1.808E+06 CFU/ml, 24 hrs): 50 ppm and 40 ppm and 30 ppm | MIC ([1]; Staphylococcus aureus, ATCC6538, 24 h, read-out: CB (MIC of compound B alone)): 60 µg/mL | Cb (concentration of compound B in the mixture which produced an end point) ([2]; MIT in mixture with Surf. A, 8.134E+07 CFU/ml): 30 ppm | Cb (concentration of compound B in the mixture which produced an end point) ([2]; MIT in mixture with Surf. D, 1.16E+08): 20 ppm | MIC ([2]; read-out: CB (MIC of compound B alone), MIT alone, Surf. A series, 1/10 TSB, inoculum 8.134E+07 CFU/ml): 40 µg/mL | MIC ([2]; read-out: CB (MIC of compound B alone), MIT alone, Surf. D series, 1/10 TSB, inoculum 1.16E+08): 30 µg/mL | MIC ([3]; Candida albicans, ATCC10203, 48 h, read-out: CB (MIC of compound B alone)): 200 µg/mL | CB (MIC of compound B alone) ([3]; Surf. D series, inoculum 5.726E+05 CFU/ml): 200 ppm | CB (MIC of compound B alone) ([3]; Surf. E series, inoculum 1.808E+06): 200 ppm | Cb (concentration of compound B in the mixture which produced an end point) ([3]; MIT in mixture with Surf. A, 1.156E+06 CFU/ml): 100 ppm | Cb (concentration of compound B in the mixture which produced an end point) ([3]; MIT in mixture with Surf. D, 5.726E+05 CFU/ml): 50 ppm and 60 ppm and 80 ppm and 100 ppm | MIC ([4]; Surf. A series): 400 µg/mL | MIC ([4]; Surf. E series): 300 µg/mL | Cb (concentration of compound B in the mixture which produced an end point) ([4]; MIT in mixture with Surf. A): 300 ppm | Cb (concentration of compound B in the mixture which produced an end point) ([4]; MIT in mixture with Surf. E): 200 ppm

O=C([O-])c1ccccc1.[Na+] [Sodium Benzoate]
Synergy against any organism tested (any organism tested; biocide paired with Surf. A): no synergy

CCC12COCN1COC2 [CS-1246]
Synergy against any organism tested (any organism tested; biocide paired with Surf. D): no synergy

Oc1ccccc1-c1ccccc1 [OPP]
Synergy against any organism tested (any organism tested; biocide paired with Surf. D): no synergy

O=[N+]([O-])C(CO)(CO)CO [TRIS NITRO]
Synergy against any organism tested (any organism tested; biocide paired with Surf. A): no synergy

Cn1sc2ccccc2c1=O [MBIT]
ratio of surfactant to biocide where synergy was observed (any organism tested; biocide paired with Surf. D): synergistic only at 1:0.05 or worse
